{
  "source": "patent US9951028B2",
  "about": "“Agricultural chemicals” (REDAG CROP PROTECTION LTD, priority 2013, dated 2018)",
  "test_in_all_cases": "Herbicidal efficacy screen, corrected necrosis",
  "format_in_all_cases": "in vivo",
  "key": {"[1]": {"test_system": "Amaranthus retroflexus (redroot pigweed)", "description": "(§1) Plants were obtained as seeds and were grown to the 2-4 true leaf stage. Plants were grown under laboratory conditions, individually in seed trays. Each plant (in an approximately 3 cm diameter plug) was then detached from the tray for spraying. The compounds were screened at a range of five concentrations, diluted in acetone and Tween™. A carrier only control was also conducted. Treatments were applied directly onto the plants, using a potter tower, at a specified application rate. One plant of each species was sprayed using a potter tower. The 3 different types of plants were placed on a 10 cm diameter platform directly beneath the potter sprayer and sprayed simultaneously. The growth of the plants and any Phytotoxicity effects were then assessed at intervals over 21 days, according to EPPO guideline PP1/135. In the tables below C represents a percentage increase in necrosis relative to the control of 0.1-50; B represents a percentage inhibition of 50-80; and A represents a percentage inhibition of 80-100. Certain compounds of the invention were screened for herbicidal efficacy against target plants: Amaranthus retroflexus (redroot pigweed), Abutilon theophrasti (China Jute): Capsella bursa-pastoris, (shepherd's-purse) Echinochloa crus-galli, Hordeum vulgare (Barley),"}, "[2]": {"test_system": "Capsella bursa-pastoris, (shepherd's-purse)", "description": "as §1"}, "[3]": {"test_system": "Abutilon theophrasti (China Jute)", "description": "as §1"}, "[4]": {"conditions": "6.25 g/ha, day 1 post application"}, "[5]": {"conditions": "6.25 g/ha, day 7 post application"}, "[6]": {"conditions": "12.5 g/ha, day 1 post application"}, "[7]": {"conditions": "12.5 g/ha, day 7 post application"}, "[8]": {"conditions": "25 g/ha, day 1 post application"}, "[9]": {"conditions": "25 g/ha, day 7 post application"}, "[10]": {"conditions": "50 g/ha, day 1 post application"}, "[11]": {"conditions": "50 g/ha, day 7 post application"}, "[12]": {"conditions": "100 g/ha, day 1 post application"}, "[13]": {"conditions": "100 g/ha, day 7 post application"}},
  "data": [
    {"smiles": "CC(C)N(C)S(=O)(=O)NC(=O)c1cc(-n2c(=O)cc(C(F)(F)F)n(C)c2=O)c(F)cc1Cl", "note": "[Compound 25, 2-Chloro-4-fluoro-N-(isopropyl(methyl)sulfamoyl)-5-[3-methyl-2,6-dioxo-4-(trifluoromethyl)pyrimidin-1-yl]benzamide, reference compound]", "values": [
      {"measurement": "Average of corrected necrosis", "setting": "[1]; [4]", "result": "C (C represents a percentage increase in necrosis relative to the control of 0.1-50)"},
      {"measurement": "Average of corrected necrosis", "setting": "[1]; [5]", "result": "A (A represents a percentage inhibition of 80-100)"},
      {"measurement": "Average of corrected necrosis", "setting": "[1]; [6]", "result": "C (C represents a percentage increase in necrosis relative to the control of 0.1-50)"},
      {"measurement": "Average of corrected necrosis", "setting": "[1]; [7]", "result": "A (A represents a percentage inhibition of 80-100)"},
      {"measurement": "Average of corrected necrosis", "setting": "[1]; [8]", "result": "C (C represents a percentage increase in necrosis relative to the control of 0.1-50)"},
      {"measurement": "Average of corrected necrosis", "setting": "[1]; [9]", "result": "A (A represents a percentage inhibition of 80-100)"},
      {"measurement": "Average of corrected necrosis", "setting": "[1]; [10]", "result": "C (C represents a percentage increase in necrosis relative to the control of 0.1-50)"},
      {"measurement": "Average of corrected necrosis", "setting": "[1]; [11]", "result": "A (A represents a percentage inhibition of 80-100)"},
      {"measurement": "Average of corrected necrosis", "setting": "[1]; [12]", "result": "C (C represents a percentage increase in necrosis relative to the control of 0.1-50)"},
      {"measurement": "Average of corrected necrosis", "setting": "[1]; [13]", "result": "A (A represents a percentage inhibition of 80-100)"},
      {"measurement": "Average of corrected necrosis", "setting": "[2]; [4]", "result": 0, "unit": "%"},
      {"measurement": "Average of corrected necrosis", "setting": "[2]; [5]", "result": "A (A represents a percentage inhibition of 80-100)"},
      {"measurement": "Average of corrected necrosis", "setting": "[2]; [6]", "result": 0, "unit": "%"},
      {"measurement": "Average of corrected necrosis", "setting": "[2]; [7]", "result": "A (A represents a percentage inhibition of 80-100)"},
      {"measurement": "Average of corrected necrosis", "setting": "[2]; [8]", "result": 0, "unit": "%"},
      {"measurement": "Average of corrected necrosis", "setting": "[2]; [9]", "result": "A (A represents a percentage inhibition of 80-100)"},
      {"measurement": "Average of corrected necrosis", "setting": "[2]; [10]", "result": "C (C represents a percentage increase in necrosis relative to the control of 0.1-50)"},
      {"measurement": "Average of corrected necrosis", "setting": "[2]; [11]", "result": "A (A represents a percentage inhibition of 80-100)"},
      {"measurement": "Average of corrected necrosis", "setting": "[2]; [12]", "result": "C (C represents a percentage increase in necrosis relative to the control of 0.1-50)"},
      {"measurement": "Average of corrected necrosis", "setting": "[2]; [13]", "result": "A (A represents a percentage inhibition of 80-100)"},
      {"measurement": "Average of corrected necrosis", "setting": "[3]; [4]", "result": "C (C represents a percentage increase in necrosis relative to the control of 0.1-50)"},
      {"measurement": "Average of corrected necrosis", "setting": "[3]; [5]", "result": "A (A represents a percentage inhibition of 80-100)"},
      {"measurement": "Average of corrected necrosis", "setting": "[3]; [6]", "result": "C (C represents a percentage increase in necrosis relative to the control of 0.1-50)"},
      {"measurement": "Average of corrected necrosis", "setting": "[3]; [7]", "result": "A (A represents a percentage inhibition of 80-100)"},
      {"measurement": "Average of corrected necrosis", "setting": "[3]; [8]", "result": "C (C represents a percentage increase in necrosis relative to the control of 0.1-50)"},
      {"measurement": "Average of corrected necrosis", "setting": "[3]; [9]", "result": "A (A represents a percentage inhibition of 80-100)"},
      {"measurement": "Average of corrected necrosis", "setting": "[3]; [10]", "result": "C (C represents a percentage increase in necrosis relative to the control of 0.1-50)"},
      {"measurement": "Average of corrected necrosis", "setting": "[3]; [11]", "result": "A (A represents a percentage inhibition of 80-100)"},
      {"measurement": "Average of corrected necrosis", "setting": "[3]; [12]", "result": "C (C represents a percentage increase in necrosis relative to the control of 0.1-50)"},
      {"measurement": "Average of corrected necrosis", "setting": "[3]; [13]", "result": "A (A represents a percentage inhibition of 80-100)"}
    ]}
  ]
}
